The nature of this experiment: Inhibition of IL5-mediated proliferation of mouse Y16 cells by WST1 assay. In general terms: Tetrazolium assays rely on reduction of a dye to a coloured formazan, in cell work by metabolically active cells.

pIC50: −log10 of the molar value. Bounds are passed on as bounds.

Turning to `COc1cc(-c2coc3cccc(OCC4CCCCC4)c3c2=O)ccc1OCc1ccccc1` [3-(4-(Benzyloxy)-3-methoxyphenyl)-5-(cyclohexylmethoxy)-4H-chromen-4-one], the pIC50 was 4.76.

On to `COc1ccc(-c2coc3cccc(OCC4CCCCC4)c3c2=O)cc1OC` [5-(Cyclohexylmethoxy)-3-(3,4-dimethoxyphenyl)-4Hchromen-4-one], for which the pIC50 is below 4.52. As for `CCc1ccc(-c2coc3cccc(OCC4CCCCC4)c3c2=O)cc1` [5-(Cyclohexylmethoxy)-3-(4-ethylphenyl)-4H-chromen-4-one], the figure is below 4.52. In the case of `COc1cc(-c2coc3cccc(OCC4CCCCC4)c3c2=O)ccc1O` [5-(Cyclohexylmethoxy)-3-(4-hydroxy-3-methoxyphenyl)-4H-chromen-4-one] it was below 4.52; in that of `COc1ccc(-c2coc3cccc(OCC4CCCCC4)c3c2=O)cc1` [5-(Cyclohexylmethoxy)-3-(4-methoxyphenyl)-4H-chromen-4-one], below 4.52; in that of `COCOc1ccc(-c2coc3cccc(OCC4CCCCC4)c3c2=O)cc1` [5-(Cyclohexylmethoxy)-3-[4-(methoxymethoxy)phenyl]-4H-chromen-4-one], below 4.52.

Regarding `O=C1/C(=C/c2ccc(Cl)cc2)Oc2cccc(OCC3CCCCC3)c21` [(Z)-2-(4-Chlorobenzylidene)-4-(cyclohexylmethoxy)benzofuran-3(2H)-one], the pIC50 was below 4.52. In the case of `O=C1/C(=C/c2ccccc2)Oc2cccc(OCC3CCCCC3)c21` [(Z)-2-(Benzylidene)-4-(cyclohexylmethoxy)benzofuran-3(2H)-one] it was below 4.52; in that of `O=C1/C(=C/c2ccc([N+](=O)[O-])cc2)Oc2cccc(OCC3CCCCC3)c21` [(Z)-4-(Cyclohexylmethoxy)-2-(4-nitrobenzylidene)benzofuran-3(2H)-one], below 4.52. In the case of `CCc1ccc(/C=C2\Oc3cccc(OCC4CCCCC4)c3C2=O)cc1` [(Z)-4-(cyclohexylmethoxy)-2-(4-ethylbenzylidene)benzofuran-3(2H)-one] it was below 4.52.

`O=Cc1ccc(/C=C2\Oc3cccc(OCC4CCCCC4)c3C2=O)cc1` [(Z)-4-{[4-(Cyclohexylmethoxy)-3-oxobenzofuran-2(3H)-ylidene]methyl}benzaldehyde] showed a pIC50 below 4.52. As for `COC(=O)c1ccc(/C=C2\Oc3cccc(OCC4CCCCC4)c3C2=O)cc1` [Methyl(Z)-4-[4-(cyclohexylmethoxy)-3-oxobenzofuran-2(3H)-ylidene]methylbenzoate], the figure is below 4.52.

For orientation: pIC50 means −log10 of the IC50, conventionally taken in molar units.

(Values after BindingDB's records for doi:10.1016/j.bmc.2010.04.075 (Chungnam National University, 2010).)
